Measurements reported in US12667586B2, “Treatments for ocular surface disorders” (Glaukos Corporation, priority 2023, dated 2026).
pIC50: −log10 of the molar value.

Legend:
[1] = tested on: persistent epithelial defect (PED) of the cornea; test: Phase 2 randomized, double-masked, vehicle-controlled study in subjects with persistent epithelial defects (PED) from ocular chemical and/or thermal injuries; assay type: in vivo, human; conditions: for subjects who achieved corneal epithelial recovery (re-epithelialized by Day 28 and remained so for at least 28 days): topical under bandage contact lens and to fornices, Day 1, Day 2, Day 14 if not re-epithelialized, n=12, full data set
From the text: A Phase 2, Randomized, Prospective, Double-Masked, Vehicle-Controlled Study to Assess the Efficacy and Safety of Lufepirsen® (Lufepirsen) Applied Topically in Subjects with Persistent Epithelial Defects (PED) Resulting from Ocular Chemical and/or Thermal Injuries.
This Example describes the use of an exemplary connexin modulator (lufepirsen) in a randomized, prospective, vehicle-controlled, double-masked, human clinical trial to treat non-healing ocular surface defects. Lufepirsen is a connexin 43 antisense oligonucleotide according to SEQ ID NO:1. The vehicle comparator in the trial was Pluronic F-127.
Study Subjects: A total of 35 subjects were enrolled in this clinical trial. All eligible subjects presented with a non-infected, persistent epithelial defect (PED) of the cornea as a result of a chemical and/or thermal ocular injury, that was refractory to current standard of care for at least 14 days. Of the 35 subjects, 24 subjects received topical ocular dose administrations of […] and 11 subjects received Vehicle. […]
• Corneal epithelial recovery, defined as a cornea that re-epithelializes by Day 28 of treatment and remains re-epithelialized for at least 28 days after initial re-epithelialization was first recorded, as assessed by the Investigator. Secondary Endpoints: • The time to epithelialization defined as the time from randomization to the time of initial re-epithelialization. • Improvement of visual acuity from baseline over the course of the study period. • Number of […] treatment doses required for recovery of the corneal epithelium. Exploratory Endpoints: • Change from baseline in PED area defined as the largest diameter times the largest one perpendicular to it, within the confines of the epithelial defect. • Corneal re-epithelialization, defined as a cornea that has re-epithelialized by Day 28 of treatment. • Change from baseline in ocular symptoms. • Primary, secondary, and exploratory endpoints were also assessed (as applicable) for the open-label section of the study. • Descriptive comparison of intrasubject corneal re-epithelization to fellow eye in subjects with bilateral injuries Safety: • Incidence of Treatment Emergent Adverse Events.
Treatment Dosing: The study comprised of a 28-day Treatment Period, followed by a Post-treatment Follow-up Period of at least 28 days to evaluate both safety and re-epithelization status (durability), both of which were double-masked (i.e., double-blinded). Once determined to be eligible, subjects were randomized to receive either […] 0.06% or […] 0.006% or Vehicle in a 1:1:1 ratio respectively. Investigational product was applied under a bandage contact lens (BCL) and to the fornices of the study eye at the following time points during the Treatment Period: • Day 1 • Day 2 • Day 14 (if the cornea has not re-epithelialized)
The eye was then covered with a double eye pad and taped shut for approximately 8 hours.
Three treatment arms were evaluated in the study. Randomization was in a 1:1:1 ratio: • GROUP A—[…] 0.06% • GROUP B—[…] 0.006% • GROUP C—Vehicle
There was a single application of investigational product on Day 1 and Day 2. A potential additional application of investigational product was scheduled at Day 14 if re-epithelialization has not occurred.
The first investigational product application occurred following randomization on Day 1 of the Treatment Period, with the second application administered on Day 2. […]

[2] = target: gap junctions (Homo sapiens); conditions: at 17 μM; cited from earlier work
Cx43 hemichannels = Cx43 hemichannels (Homo sapiens, UniProt P17302); conditions: cited from earlier work
gap junctions = conditions: in some circumstances; cited from earlier work
[3] = tested on: ATP release in glioma cells; conditions: read-out: IC50 (half maximal inhibitory concentration) for the inhibition of ATP release; cited from earlier work

gap junctions (Homo sapiens), sequence (P08034 whole entry): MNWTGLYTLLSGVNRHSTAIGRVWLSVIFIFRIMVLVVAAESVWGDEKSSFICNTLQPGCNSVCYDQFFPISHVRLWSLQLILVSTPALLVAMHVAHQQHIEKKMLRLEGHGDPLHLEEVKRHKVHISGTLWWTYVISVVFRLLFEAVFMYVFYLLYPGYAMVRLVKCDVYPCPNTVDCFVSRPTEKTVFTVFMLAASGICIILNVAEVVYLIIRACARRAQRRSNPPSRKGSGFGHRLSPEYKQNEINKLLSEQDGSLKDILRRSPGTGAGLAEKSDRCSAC
Cx43 hemichannels, sequence (P17302 2-382 limits assumed): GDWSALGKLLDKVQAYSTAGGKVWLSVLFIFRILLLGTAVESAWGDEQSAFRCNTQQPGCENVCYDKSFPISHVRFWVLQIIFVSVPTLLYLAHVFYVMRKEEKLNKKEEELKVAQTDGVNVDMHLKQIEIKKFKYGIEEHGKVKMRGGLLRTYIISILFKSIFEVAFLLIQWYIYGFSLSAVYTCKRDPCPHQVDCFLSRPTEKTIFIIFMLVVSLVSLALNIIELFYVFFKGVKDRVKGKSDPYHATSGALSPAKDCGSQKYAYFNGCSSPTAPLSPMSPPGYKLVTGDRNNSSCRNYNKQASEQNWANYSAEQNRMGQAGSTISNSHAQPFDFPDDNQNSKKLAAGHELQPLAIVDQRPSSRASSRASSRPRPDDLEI

5′-GTAATTGCGGCAAGAAGAATTGTTTCTGTC-3′ (antisense GTAATTGCGGCAAGAAGAATTGTTTCTGTC; listed as DNA, chemistry not given here)
subjects who achieved corneal epithelial recovery (re-epithelialized by Day 28 and remained so for at least 28 days) ([1]; LUFEPIRSEN 0.006%): 66.7%
subjects who achieved corneal epithelial recovery (re-epithelialized by Day 28 and remained so for at least 28 days) ([1]; LUFEPIRSEN 0.06%): 66.7%
tolerability of treatment (TEAEs) ([1]; TEAEs across all 3 treatment groups mild to moderate, unlikely/unrelated to study drug, a SAE not related to study drug): well tolerated
times more likely to heal than the vehicle group ([1]; both LUFEPIRSEN doses pooled (n=24) vs VEH (n=11)): 2.44 times
comparative improvement in corneal epithelial recovery over the VEH group ([1]; both LUFEPIRSEN doses pooled (n=24) vs VEH (n=11), Fisher's exact test p=0.065): 39.4%

GHGDPLHLEEVKC [^32Gap24, peptide that mimics a 13 amino acid long stretch of the L2 region of Cx32]
effect on gap junctions [2]: without affecting gap junctions

VDCFLSRPTEKT [Peptide5]
concentration at which Cx43 hemichannels are inhibited (Cx43 hemichannels): 5 to 10 µM
concentration at which incubation also leads to inhibition of gap junctions (gap junctions): ≥ 100 µM

YGRKKRRQRRRKQIEIKKFK [TAT-^43Gap19]
pIC50 [3]: 5.15
